ChEMBL document CHEMBL3885881, “DrugMatrix”

Key:
Rattus norvegicus [1] = species on record: Rattus norvegicus; format: toxicity, organism-based, Sprague-Dawley; settings: in vivo, ip, 0 mg/kg, 24 h, vehicle control, route intraperitoneal, dose level Control, time 1 day, vehicle .1 % RSA/SALINE
Description: DrugMatrix - Regimen: Single

Rattus norvegicus [2] = species on record: Rattus norvegicus; experiment: DrugMatrix - Regimen: Daily Repeat; format: toxicity, organism-based, Sprague-Dawley; parameters: regimen Daily Repeat, gender Male, age 6-8 weeks; settings: in vivo, iv, vehicle 100 % SALINE; for ABSOLUTE BASOPHIL / ABSOLUTE EOSINOPHIL / ABSOLUTE LYMPHOCYTE / ABSOLUTE MONOCYTE / ABSOLUTE SEGMENTED NEUTROPHIL / BASOPHIL / EOSINOPHIL / ERYTHROCYTE COUNT / HEMATOCRIT / HEMOGLOBIN / LEUKOCYTE COUNT / LYMPHOCYTE / MEAN CORPUSCULAR HEMOGLOBIN / MEAN CORPUSCULAR HEMOGLOBIN CONCENTRATION / MEAN CORPUSCULAR VOLUME / MONOCYTE / NEUTROPHIL / NUCLEATED RED BLOOD CELLS / PLATELET COUNT: tissue Blood; for ALANINE AMINOTRANSFERASE / ALBUMIN / ALKALINE PHOSPHATASE / ASPARTATE AMINOTRANSFERASE / BLOOD UREA NITROGEN / CARBON DIOXIDE / CHLORIDE / CHOLESTEROL / CREATINE PHOSPHOKINASE / CREATININE / GLUCOSE / LACTATE DEHYDROGENASE / LIPASE / PHOSPHORUS / POTASSIUM / SODIUM / TOTAL BILIRUBIN / TOTAL PROTEIN / URIC ACID: tissue Plasma
[3] = 0.4 mg/kg, 72 h, dose level Low, time 3 day
[4] = 0.4 mg/kg, 120 h, dose level Low, time 5 day
[5] = 4 mg/kg, 72 h, dose level High, time 3 day
[6] = 4 mg/kg, 120 h, dose level High, time 5 day

## INTERLEUKIN 6, RAT
Rattus norvegicus [1]; tissue Blood
  ABSOLUTE EOSINOPHIL: 109.33 CELLS/uL
  ABSOLUTE LYMPHOCYTE: 13180.67 CELLS/uL
  ABSOLUTE MONOCYTE: 354 CELLS/uL
  ABSOLUTE SEGMENTED NEUTROPHIL: 1756 CELLS/uL
  BASOPHIL: 0%
  EOSINOPHIL: 0.67%
  ERYTHROCYTE COUNT: 5.38 x10E6/uL
  HEMOGLOBIN: 12.57 G/DL
  LEUKOCYTE COUNT: 15.4 x10E3/uL
  LYMPHOCYTE: 85%
  MEAN CORPUSCULAR HEMOGLOBIN: 23.37 pg
  MEAN CORPUSCULAR HEMOGLOBIN CONCENTRATION: 38.3 G/DL
  NEUTROPHIL: 12%
  NUCLEATED RED BLOOD CELLS: 0 /100WBC
  PLATELET COUNT: 832.33 x10E3/uL
Rattus norvegicus [1]; tissue Plasma
  ALANINE AMINOTRANSFERASE: 37.33 u/L
  ALBUMIN: 4 G/DL
  ALKALINE PHOSPHATASE: 344.67 u/L
  ASPARTATE AMINOTRANSFERASE: 69.33 u/L
  BLOOD UREA NITROGEN: 13.67 mg/dL
  CARBON DIOXIDE: 28.33 mmol/L
  CHLORIDE: 99.67 MEQ/L
  CHOLESTEROL: 73.67 mg/dL
  CREATINE PHOSPHOKINASE: 270 u/L
  CREATININE: 0.19 mg/dL
  GLUCOSE: 176.33 mg/dL
  LACTATE DEHYDROGENASE: 160 u/L
  PHOSPHORUS: 13.47 mg/dL
  POTASSIUM: 6.77 MEQ/L
  TOTAL BILIRUBIN: 0.13 mg/dL
  TOTAL PROTEIN: 6.07 G/DL
  URIC ACID: 1.87 mg/dL

## CCCCN1CCCC[C@H]1C(=O)Nc1c(C)cccc1C [LEVOBUPIVACAINE]
Rattus norvegicus [2]; [3]
  ABSOLUTE BASOPHIL: 0 CELLS/uL
  ABSOLUTE EOSINOPHIL: 254.67 CELLS/uL
  ABSOLUTE LYMPHOCYTE: 15126.67 CELLS/uL
  ABSOLUTE MONOCYTE: 468.33 CELLS/uL
  ABSOLUTE SEGMENTED NEUTROPHIL: 1383.67 CELLS/uL
  BASOPHIL: 0%
  EOSINOPHIL: 1.33%
  ERYTHROCYTE COUNT: 5.99 x10E6/uL
  HEMATOCRIT: 37.7%
  HEMOGLOBIN: 13.83 G/DL
  LEUKOCYTE COUNT: 17.23 x10E3/uL
  LYMPHOCYTE: 88.33%
  MEAN CORPUSCULAR HEMOGLOBIN: 23.17 pg
  MEAN CORPUSCULAR HEMOGLOBIN CONCENTRATION: 36.7 G/DL
  MEAN CORPUSCULAR VOLUME: 63.07 fL
  MONOCYTE: 2.67%
  NEUTROPHIL: 7.67%
  NUCLEATED RED BLOOD CELLS: 0 /100WBC
  PLATELET COUNT: 1404.67 x10E3/uL
  ALANINE AMINOTRANSFERASE: 48.33 u/L
  ALBUMIN: 4.3 G/DL
  ALKALINE PHOSPHATASE: 344.33 u/L
  ASPARTATE AMINOTRANSFERASE: 82.67 u/L
  BLOOD UREA NITROGEN: 17.33 mg/dL
  CARBON DIOXIDE: 22 mmol/L
  CHLORIDE: 106 MEQ/L
  CHOLESTEROL: 74 mg/dL
  CREATINE PHOSPHOKINASE: 243 u/L
  CREATININE: 0.23 mg/dL
  GLUCOSE: 167.67 mg/dL
  LACTATE DEHYDROGENASE: 317 u/L
  LIPASE: 9 u/L
  PHOSPHORUS: 13.87 mg/dL
  POTASSIUM: 6.74 MEQ/L
  SODIUM: 148.9 MEQ/L
  TOTAL BILIRUBIN: 0.2 mg/dL
  TOTAL PROTEIN: 6.3 G/DL
  URIC ACID: 2.5 mg/dL
Rattus norvegicus [2]; [4]
  ABSOLUTE BASOPHIL: 0 CELLS/uL
  ABSOLUTE EOSINOPHIL: 140.33 CELLS/uL
  ABSOLUTE LYMPHOCYTE: 13101.33 CELLS/uL
  ABSOLUTE MONOCYTE: 294.33 CELLS/uL
  ABSOLUTE SEGMENTED NEUTROPHIL: 1864 CELLS/uL
  BASOPHIL: 0%
  EOSINOPHIL: 1%
  ERYTHROCYTE COUNT: 5.93 x10E6/uL
  HEMATOCRIT: 37%
  HEMOGLOBIN: 14 G/DL
  LEUKOCYTE COUNT: 15.4 x10E3/uL
  LYMPHOCYTE: 85.33%
  MEAN CORPUSCULAR HEMOGLOBIN: 23.6 pg
  MEAN CORPUSCULAR HEMOGLOBIN CONCENTRATION: 37.83 G/DL
  MEAN CORPUSCULAR VOLUME: 62.47 fL
  MONOCYTE: 2%
  NEUTROPHIL: 11.67%
  NUCLEATED RED BLOOD CELLS: 0.33 /100WBC
  PLATELET COUNT: 1119 x10E3/uL
  ALANINE AMINOTRANSFERASE: 67.67 u/L
  ALBUMIN: 4.13 G/DL
  ALKALINE PHOSPHATASE: 394 u/L
  ASPARTATE AMINOTRANSFERASE: 122.67 u/L
  BLOOD UREA NITROGEN: 20 mg/dL
  CARBON DIOXIDE: 24.67 mmol/L
  CHLORIDE: 107.33 MEQ/L
  CHOLESTEROL: 54.33 mg/dL
  CREATINE PHOSPHOKINASE: 430.33 u/L
  CREATININE: 0.2 mg/dL
  GLUCOSE: 154.33 mg/dL
  LACTATE DEHYDROGENASE: 798.67 u/L
  LIPASE: 8.67 u/L
  PHOSPHORUS: 13.03 mg/dL
  POTASSIUM: 5.58 MEQ/L
  SODIUM: 148.47 MEQ/L
  TOTAL BILIRUBIN: 0.1 mg/dL
  TOTAL PROTEIN: 6.2 G/DL
  URIC ACID: 1.57 mg/dL
Rattus norvegicus [2]; [5]
  ABSOLUTE BASOPHIL: 0 CELLS/uL
  ABSOLUTE EOSINOPHIL: 0 CELLS/uL
  ABSOLUTE LYMPHOCYTE: 11600.33 CELLS/uL
  ABSOLUTE MONOCYTE: 405 CELLS/uL
  ABSOLUTE SEGMENTED NEUTROPHIL: 1828 CELLS/uL
  BASOPHIL: 0%
  EOSINOPHIL: 0%
  ERYTHROCYTE COUNT: 5.58 x10E6/uL
  HEMATOCRIT: 35.27%
  HEMOGLOBIN: 13.37 G/DL
  LEUKOCYTE COUNT: 13.83 x10E3/uL
  LYMPHOCYTE: 83.67%
  MEAN CORPUSCULAR HEMOGLOBIN: 23.93 pg
  MEAN CORPUSCULAR HEMOGLOBIN CONCENTRATION: 37.9 G/DL
  MEAN CORPUSCULAR VOLUME: 63.2 fL
  MONOCYTE: 3%
  NEUTROPHIL: 13.33%
  NUCLEATED RED BLOOD CELLS: 0.33 /100WBC
  PLATELET COUNT: 1307 x10E3/uL
  ALANINE AMINOTRANSFERASE: 41.33 u/L
  ALBUMIN: 4.27 G/DL
  ALKALINE PHOSPHATASE: 430.67 u/L
  ASPARTATE AMINOTRANSFERASE: 83.33 u/L
  BLOOD UREA NITROGEN: 15.67 mg/dL
  CARBON DIOXIDE: 24.67 mmol/L
  CHLORIDE: 105.67 MEQ/L
  CHOLESTEROL: 62 mg/dL
  CREATINE PHOSPHOKINASE: 275.67 u/L
  CREATININE: 0.23 mg/dL
  GLUCOSE: 152 mg/dL
  LACTATE DEHYDROGENASE: 383 u/L
  LIPASE: 8.67 u/L
  PHOSPHORUS: 13.3 mg/dL
  POTASSIUM: 6.04 MEQ/L
  SODIUM: 146.8 MEQ/L
  TOTAL BILIRUBIN: 0.2 mg/dL
  TOTAL PROTEIN: 5.77 G/DL
  URIC ACID: 1.43 mg/dL
Rattus norvegicus [2]; [6]
  ABSOLUTE BASOPHIL: 0 CELLS/uL
  ABSOLUTE EOSINOPHIL: 0 CELLS/uL
  ABSOLUTE LYMPHOCYTE: 14035 CELLS/uL
  ABSOLUTE MONOCYTE: 328 CELLS/uL
  ABSOLUTE SEGMENTED NEUTROPHIL: 2037 CELLS/uL
  BASOPHIL: 0%
  EOSINOPHIL: 0%
  ERYTHROCYTE COUNT: 5.6 x10E6/uL
  HEMATOCRIT: 34.2%
  HEMOGLOBIN: 13.05 G/DL
  LEUKOCYTE COUNT: 16.4 x10E3/uL
  LYMPHOCYTE: 85.5%
  MEAN CORPUSCULAR HEMOGLOBIN: 23.3 pg
  MEAN CORPUSCULAR HEMOGLOBIN CONCENTRATION: 38.15 G/DL
  MEAN CORPUSCULAR VOLUME: 61.1 fL
  MONOCYTE: 2%
  NEUTROPHIL: 12.5%
  NUCLEATED RED BLOOD CELLS: 0.5 /100WBC
  PLATELET COUNT: 1167 x10E3/uL
  ALANINE AMINOTRANSFERASE: 38 u/L
  ALBUMIN: 4.35 G/DL
  ALKALINE PHOSPHATASE: 311 u/L
  ASPARTATE AMINOTRANSFERASE: 72.5 u/L
  BLOOD UREA NITROGEN: 18 mg/dL
  CARBON DIOXIDE: 26.5 mmol/L
  CHLORIDE: 103 MEQ/L
  CHOLESTEROL: 57.5 mg/dL
  CREATINE PHOSPHOKINASE: 325.5 u/L
  CREATININE: 0.17 mg/dL
  GLUCOSE: 150.5 mg/dL
  LACTATE DEHYDROGENASE: 321.5 u/L
  LIPASE: 8 u/L
  PHOSPHORUS: 13.4 mg/dL
  POTASSIUM: 6.04 MEQ/L
  SODIUM: 146.65 MEQ/L
  TOTAL BILIRUBIN: 0.1 mg/dL
  TOTAL PROTEIN: 6.05 G/DL
  URIC ACID: 1.5 mg/dL
